Assay results as given in patent US8980646B2, “Proteolytic and covalent antibodies” (priority 2003, dated 2015).

Assays:
[1] = tested on: IgG; format: biochemical, human
[2] = tested on: murine splenocytes; assay: Hapten CRA I staining of splenocytes / B cells (microscopy, flow cytometry, extract affinity chromatography)
[3] = tested on: polyclonal murine IgM; format: biochemical, mouse
[4] = tested on: human IgG HS-2; assay: Irreversible inhibition of HS-2 IgG-catalyzed [Tyr10-125I]-VIP cleavage; format: biochemical; settings: for IC50: IgG 2 μM preincubated 16 h with CRA, unreacted CRA removed
Procedure: FIG. 23. Inhibition of polyclonal antibody catalyzed VIP cleavage by VIP-CRA 3 and hapten CRA 1. Panel A: Reversed-phase HPLC profiles showing cleavage of [Tyr^10-^125I]-VIP at multiple sites by human IgG HS-2. [Tyr^10-^1251I]-VIP incubated in the presence (●) or absence (◯) of HS-2 IgG (2 μM) for 16 h and subjected to HPLC [Nova-pak C, 3.9×150 mm; 0.1% TFA in water: 0.1% TFA in 80% acetonitrile 95:5 for 10 min, 95:5 to 30:70 in 55 min, 30:70 to 0:100 in 5 min, 0:100 for 5 min (0.5 ml/min)]. Shown are values of ^125I radioactivity recovered in the HPLC fractions (0.5 ml). Panel B: Irreversible inhibition of HS-2 IgG-catalyzed [Tyr^10-^125I]-VIP cleavage by VIP-CRA 3 and hapten CRA 1. IgG (2 μM) was preincubated for 16 h in the absence or presence of increasing concentrations of VIP-CRA 3 (●) or hapten CRA 1 (◯). Following removal of unreacted CRA by chromatography on immobilized Protein G, the residual catalytic activity of the IgG was measured using [Tyr^10-^125I]-VIP as substrate. Data are means±SD. Control HS-2 IgG incubated in the absence of CRAs cleaved 2791 c.p.m. [Tyr^10-^125I]-VIP.
Preparation and assay of cleavage of [Tyr^10-^125I]-VIP were described previously (24). To determine if the CRAs inhibit Abs irreversibly, IgG (2 μM) was incubated (37° C.) with 1 or 3 for 16 h in 50 mM Tris.HCl-0.1M Gly (pH 8.0) containing 2.5% DMSO and 0.025% Tween 20. Unreacted 1 or 3 was then removed by chromatography of the reaction mixtures (0.2 ml) on protein G columns as in ref35 (50 μl settled gel; washed with 0.8 ml 50 mM Tris.HCl, pH 7.4; eluted with 0.2 ml 0.1 M Gly.HCl, pH 2.7; neutralized with 1M Tris.HCl, pH 9). Fifty μl aliquots of the recovered IgG (and IgG-CRA complexes) were incubated with [Tyr^10-^125I]-VIP (86,000 c.p.m.) for 18 h and peptide cleavage was determined by measuring the radioactivity soluble in trichloroacetic acid. Control IgG samples were incubated without CRA, chromatographed and analyzed for VIP cleaving activity in the same way.

[5] = biological target: exEGFR protein CRA IV (human) (UniProt P00533)
[6] = biological target: gp120-CRA III (HIV-1, MN strain) (UniProt P05877); assay: ELISA, serum 1:100, immobilized III
[7] = biological target: HIV-1 gp120 (MN strain, recombinant, baculovirus expression system) (HIV-1, MN strain) (UniProt P05877); assay: ELISA, serum 1:100, immobilized gp120
[8] = tested on: peptide-AMC substrates; assay: Peptide-AMC cleavage by IgM, IgG and Fab (fluorimetry); format: biochemical; settings: 675 nM pepsin; other conditions as FIG. 31B
[9] = tested on: anti-VIP IgG c23.5 light chain; format: binding, mouse
[10] = Irreversible hapten CRA I binding by IgG, scFv and trypsin (SDS-electrophoresis of biotin-containing adducts); settings: CRA I 100 μM; linear regression of FIG. 8B data

N=C(N)c1ccc(C(NC(=O)CCCCCNC(=O)CCCC[C@@H]2SC[C@@H]3NC(=O)N[C@@H]32)P(=O)(Oc2ccccc2)Oc2ccccc2)cc1 (stereo partly drawn) [hapten CRA I, Diphenyl N-(6-biotinamidohexanoyl)amino(4-amidinophenyl)methanephosphonate]
effect on IgG-catalyzed peptide-MCA cleavage [1]: inhibited
cell viability following incubation (trypan blue exclusion) [2]: No loss of viability
CRA I-stained cells positive for B cell marker CD19 ([2]; 3 repeat experiments): 82±4%
total CRA content of B cells adsorbed by immobilized Abs to μ and κ/λ chains ([2]; B cell extract, densitometry): Eighty
cells displaying intense staining ([2]; N 3 experiments, counting 400 lymphocytes, UV microscope): 11±2
minority subpopulation with very high fluorescence intensity ([2]; flow cytometry): 14%
CRA I-treated cells with fluorescence intensity exceeding compound II-treated cells ([2]; flow cytometry, 100 μM, 4 hours): Seventy nine
inhibition of murine IgM activity [3]: 9-100%
IC50 ([3]; read-out: IC50, murine IgM Glu-Ala-Arg-AMC cleavage): 42 µM
IC50 [4]: 36 µM

VIP-CRA 3: N-terminally biotinylated VIP with amidino phosphonate diester on the Lys20 side chain; called VIP-CRA 4 in Examples VI, XI
VIP-CRA concentration giving near-complete inhibition of catalysis ([4]; IgG 2 μM preincubated 16 h): > 20 µM
IC50 [4]: 7 µM

nonimmune mouse IgG / nonimmune mouse serum (antibody)
kobs (pseudo-first order rate constant for accumulation of adducts) [5]: < 0.0072 h⁻¹
A490 [6]: -0.002 A490
A490 [7]: 0.001 A490

pepsin: purified porcine pepsin used as control
cleavage of Glu-Ala-Arg-AMC by pepsin [8]: did not cleave

vasoactive intestinal peptide [VIP]
inhibition of formation of VIP-CRA 3 adducts with anti-VIP light chain [9]: 41.0±7%

B1: trypsin: porcine trypsin, type IX, Sigma (protein, UniProt P00761 9-231, looked up)
Trypsin: IVGGYTCAANSIPYQVSLNSGSHFCGGSLINSQWVVSAAHCYKSRIQVRLGEHNIDVLEGNEQFINAAKIITHPNFNGNTLDNDIMLIKLSSPATLNSRVATVSLPRSCAAAGTECLISGWGNTKSSGSSYPSLLQCLKAPVLSDSSCKSSYPGQITGNMICVGFLEGGKDSCQGDSGGPVVCNGQLQGIVSWGYGCAQKNKPGVYTKVCNYVNWIQQTIAAN
velocity of covalent I adduct formation [10]: 11.9±0.6 AAU/min
